Activity calls are given as the source filed them. No rule for the calls is given here.

This test is described as follows: EBV protein-peptide binding inhibitors, dose response, biochemical, fluorescence polarization (AID 1419). Conditions: cell-free protein-peptide binding, 2 h; for fold change: measured here: P channel fold over control, at 54 µM.

The IC50 is the concentration that inhibits the measured activity by half. With `O=C(C1=C(O)C(=O)N(c2nccs2)C1c1ccccc1)c1cc2ccccc2o1` (stereo unspecified), the half-inhibitory concentration (IC50) is less than 0.42 µM and the fold change was determined as 161.

Take `COc1ccc(C2CC(c3cccs3)=NN2c2ccc(C=O)cc2)cc1` (stereo unspecified): the IC50 was 16.2 µM and the fold change is 15.4.

Turning to `COc1ccc(C(=O)Nc2cccc(-c3cc4ccccc4oc3=O)c2)cc1[N+](=O)[O-]`, the IC50 is > 54 µM (inactive) and the fold change turned out to be 0.607.

Take `O=[N+]([O-])c1cc(/C=N\Nc2nccs2)ccc1O`: the IC50 is 1.31 µM and the fold change stood at 1.07.

In the case of `Cc1cc(NC(=O)Cc2cccs2)no1`, the IC50 was 16.9 µM and the fold change was 1.09.

In the case of `CC(=O)n1c(C=Nc2ccc(Cl)cc2)c(O)c2ccccc21`, the IC50 was 1.09 µM and the fold change is 31.8.

Take `O=C(CSc1ccsc1[N+](=O)[O-])Nc1cccc(F)c1`: the IC50 is > 54 µM (inactive) and the fold change came to 1.11.

In the case of `CCOC(=O)c1ccc2c(c1)C1C=CCC1C(C(=O)O)N2` (stereo unspecified), the IC50 is 4.11 µM and the fold change was found to be 1.2.

For the compound `Cc1cc(/C=N/NC(N)=S)c(O)c(/C=N/NC(N)=S)c1`, the half-maximal inhibitory concentration (IC50) was less than 0.42 µM and the fold change was 26.6.

Regarding `COC(=O)c1cc2c(-c3ccccc3)c(C)c3ccccn3c-2c1C(=O)OC`, the IC50 is 9.93 µM and the fold change worked out at 1.47.

`CCOC(=O)/C(C#N)=C/c1cc2ccccc2nc1N1CCCCC1`: the IC50 was 27.1 µM and the fold change is 2.2.

Turning to `O=C(N/N=C/c1ccc(F)cc1)c1cc(-c2ccco2)nc2ccccc12`, the IC50 was 3.56 µM and the fold change was found to be 0.96.

As to `COC(=O)c1cc(NC(=O)c2cccc(Cl)c2)c(=O)oc1/C=C/Nc1cc(C)cc(C)c1`, the IC50 is 4.37 µM and the fold change was 22.8.

Turning to `Oc1[nH]c2ccccc2c1N=Nc1ccccc1`, the concentration for half-maximal inhibition (IC50) was 18.8 µM and the fold change worked out at 21.6.

With `CCN(CC)S(=O)(=O)c1ccc(C(=O)/C=C/c2ccc(-c3ccc([N+](=O)[O-])cc3)o2)cc1`, the 50% inhibitory concentration (IC50) is 2.97 µM and the fold change was 12.8.

For `C1=C(c2ccc(-c3ccccc3)cc2)Nc2ncnn2C1c1ccco1` (stereo unspecified), the IC50 was less than 0.42 µM and the fold change was found to be 15.5.

As to `Nc1nnc(-c2cc3c(ccc4ccccc43)oc2=O)s1`, the IC50 is less than 0.42 µM and the fold change is 2.34.

For the compound `CN(C)c1ccc(/C=C/C(=O)c2cccc(Br)c2)cc1`, the IC50 was 8.66 µM and the fold change is 11.4.

In the case of `CCOC(=O)/C(C#N)=C/c1ccc(N2CCN(Cc3ccccc3)CC2)cc1`, the IC50 is 40.3 µM (inactive) and the fold change is 9.09.

As for `N=C1/C(=C/c2ccc(-c3cccc(C(=O)O)c3)o2)C(=O)N=C2SC=C(c3ccccc3)N12`, the IC50 is 3.82 µM and the fold change came out at 1.36.

As to `CCOCCCn1c(=NC(=O)c2cccs2)c(C#N)cc2c(=O)n3cccc(C)c3nc21`, the concentration for half-maximal inhibition (IC50) was 7.53 µM and the fold change was 4.61.

Consider `Cn1c(=O)[nH]c2cc(Cl)cnc21`, for which the IC50 is 7.23 µM and the fold change is 2.34.

`Cc1cc(C)c[n+](-c2nc3ccccc3nc2[N-]S(=O)(=O)c2ccc(Br)s2)c1`: the IC50 is 7.26 µM and the fold change came to 3.69.

Take `CC1(c2ccc3noc(-c4ccc(F)cc4)c3c2)OCCO1`: the IC50 was 1.53 µM and the fold change was 3.53.

On to `Cc1nc(Cl)c2c(n1)NC1=C(O2)C(=O)CCC1`, for which the IC50 was 0.86 µM and the fold change was 22.3.

As for `COc1ccc2nc(C)cc(N3CCOCC3)c2c1`, the IC50 is > 54 µM (inactive) and the fold change amounted to 1.04.

On to `N#C/C(=C\C=C\c1ccccc1)c1nc(-c2ccc3c(c2)OCO3)cs1`, for which the IC50 is 1.49 µM and the fold change worked out at 14.2.

Take `COC(=O)c1cc2c(C)c(C)c3ccccn3c-2c1C(=O)OC`: the 50% inhibitory concentration (IC50) was 3.61 µM and the fold change was 2.38.

Take `Cc1ncc([N+](=O)[O-])n1Cc1cccc2ccccc12`: the IC50 was > 54 µM (inactive) and the fold change amounted to 0.957.

In the case of `COc1ccc(-c2nc(CS(=O)CC(=O)NCc3cccnc3)c(C)o2)cc1` (stereo unspecified), the IC50 was > 54 µM (inactive) and the fold change turned out to be 1.01.

Consider `COc1ccccc1NC(=O)c1sc2nc(Cc3ccccc3)cc(C(F)(F)F)c2c1N`, for which the IC50 was 1.71 µM and the fold change was found to be 10.7.

For the compound `Cc1nn(C)c(C)c1CN(C)C(=O)C1c2ccccc2Oc2ccccc21`, the 50% inhibitory concentration (IC50) is 3.77 µM and the fold change worked out at 4.27.

Turning to `CC(C)c1ccc(/C=C/C(=O)n2nnc3ccccc32)cc1`, the IC50 is > 54 µM (inactive) and the fold change was 0.857.

`CN1CC=C2C(C#N)=C(N)C(C#N)(C#N)[C@H](c3ccoc3)[C@H]2C1`: the IC50 is > 54 µM (inactive) and the fold change stood at 1.96.

As for `CC(C)(C)c1ccc(OCC(=O)Nc2ccc3c4c(cccc24)C(=O)NC3=O)cc1`, the IC50 was > 54 µM (inactive) and the fold change is 2.15.

For `O=C(Nc1cccc(S(=O)(=O)NC2=NCCC2)c1)c1cc(-c2ccco2)nc2ccccc12`, the IC50 was 2.74 µM and the fold change stood at 1.11.

For `CNC(=S)NN(c1ccccc1)c1ccccc1`, the IC50 is > 54 µM (inactive) and the fold change is 1.01.

On to `CC1(C)CC(=O)C2=C(C1)OC(N)=C(C#N)C2c1cc2c(cc1[N+](=O)[O-])OCO2` (stereo unspecified), for which the IC50 was 2.04 µM and the fold change is 3.34.

As to `Cc1nn(-c2ccccc2)c(N2CCCC2)c1/C=C1\N=C(c2ccccc2)OC1=O`, the IC50 was 25.5 µM and the fold change amounted to 3.5.

Regarding `CN(C)c1ccc(/C=C2\SC(=O)N(CC(O)Cn3c4ccccc4c4ccccc43)C2=O)cc1` (stereo unspecified), the IC50 was 2.46 µM and the fold change came out at 10.3.

Turning to `CC(=C/c1ccccc1)/C=N/NC(=O)c1cnccn1`, the IC50 is > 54 µM (inactive) and the fold change is 1.1.

Regarding `Cc1ccc(S(=O)(=O)c2cc3c(=O)n4ccccc4nc3n(Cc3ccco3)c2=N)cc1`, the IC50 is > 54 µM (inactive) and the fold change turned out to be 1.74.

Take `COc1ccc(NC(=O)CSc2nc3c(c(-c4cccs4)c2C#N)CN(C)CC3)cc1OC`: the IC50 was > 54 µM (inactive) and the fold change turned out to be 1.37.

Regarding `CCCCCCn1c(=O)[nH]c2nc3cc(N)ccc3nc2c1=O`, the concentration for half-maximal inhibition (IC50) was less than 0.42 µM and the fold change came out at 85.8.

Take `O=C(O)c1ccc2c3c(ncnc13)-c1ccccc1C2=O`: the IC50 is > 54 µM (inactive) and the fold change was 1.83.

`CCOC(=O)Cn1c(=O)c(-c2cc(Br)ccc2N)nc2ccccc21`: the IC50 is > 54 µM (inactive) and the fold change turned out to be 6.44.

Regarding `O=C(Nc1nnc(Cc2ccccc2)s1)c1cnccn1`, the IC50 is > 54 µM (inactive) and the fold change turned out to be 1.06.

Regarding `Nc1c(NCCC2=CCCCC2)c(=O)[nH]c(=O)n1Cc1ccccc1`, the IC50 was > 54 µM (inactive) and the fold change came to 1.7.

`Cc1ccc(S(=O)(=O)Nc2ccc(N3CCN(C)CC3)nc2)cc1`: the IC50 is 3.59 µM and the fold change is 2.82.

Consider `CCn1cc(C(=O)NCc2ccccn2)c(=O)c2cc(S(=O)(=O)N3CCCCC3)ccc21`, for which the IC50 was 0.74 µM and the fold change came out at 4.52.

As for `CSC1=NSC2=NC(=O)/C(=C/c3coc4ccccc4c3=O)C(=N)N12`, the IC50 is 1.78 µM and the fold change was 106.

As to `CS(=O)(=O)n1nc(-c2ccc(Cl)cc2)nc1SCc1ccccc1`, the IC50 is > 54 µM (inactive) and the fold change amounted to 1.16.

In the case of `O=[N+]([O-])c1ccc(/C=C/c2nc3ccc([N+](=O)[O-])cc3[nH]2)cc1`, the IC50 was 2.48 µM and the fold change stood at 1.15.

Take `COC(CNC(=O)c1ccc2c3c(onc13)-c1ccccc1C2=O)OC`: the IC50 is less than 0.42 µM and the fold change stood at 137.

With `O=c1[nH]c(S)c(/C=C2\C=Nc3ccccc32)s1`, the IC50 was 2 µM and the fold change came out at 3.56.

Take `NC(=O)c1ccc(N=Nc2c(O)c3ccccc3[nH]c2=O)cc1`: the concentration for half-maximal inhibition (IC50) was 13.3 µM and the fold change stood at 2.71.

`N#C/C(=C\C1=C(N2CCOCC2)C(=C\c2ccccc2)/CC1)C(=O)Nc1ccccc1F`: the IC50 is 1.23 µM and the fold change was determined as 2.94.

Take `O=C1CCN2C=Nc3cccc4ccc1c2c34`: the IC50 was less than 0.42 µM and the fold change is 171.

As for `COc1ccc(NC(=O)C2Cc3ccccc3CN2C(=O)c2ccccc2)cn1` (stereo unspecified), the IC50 is 8.48 µM and the fold change amounted to 3.29.

Regarding `CCOC(=O)CC(=O)CSc1nc(-c2cccnc2)ccc1C#N`, the IC50 is > 54 µM (inactive) and the fold change was 1.63.

In the case of `Cn1c(=O)c(Nc2ccc(O)cc2)c2c3c(cccc31)C(=O)c1ccccc1-2`, the IC50 is less than 0.42 µM and the fold change amounted to 3.86.

In the case of `COc1cc(/C=C2\SC(=O)N(c3ccc(Cl)cc3)C2=O)cc([N+](=O)[O-])c1O`, the 50% inhibitory concentration (IC50) was 4.58 µM and the fold change worked out at 1.13.

For the compound `Cc1[nH]c(=O)[nH]c(=O)c1S(=O)(=O)N1CCN(c2ccccc2F)CC1`, the IC50 was > 54 µM (inactive) and the fold change was 1.04.

On to `CCOC(=O)c1ccc(N2C(=O)C3C(C2=O)C(C(=O)c2ccc(Cl)cc2)N2CCCC32)cc1` (stereo unspecified), for which the IC50 is 2.54 µM and the fold change was found to be 5.32.

Take `O=C(OCCN1C(=O)c2cccc3c(N4CCOCC4)ccc(c23)C1=O)c1ccc(Cl)cc1`: the IC50 was 4.07 µM and the fold change was 53.3.

For `Cn1cc(Cl)c(C(=O)Nc2nc3ccc([N+](=O)[O-])cc3s2)n1`, the IC50 is > 54 µM (inactive) and the fold change is 0.983.

In the case of `C=CCN1C(=O)/C(=C\C=C2\N(C)c3ccccc3C2(C)C)SC1=S`, the IC50 was 5.07 µM and the fold change is 8.39.

As to `COc1cc(C2CC(C(F)(F)F)n3ncc(C(=O)O)c3N2)cc(OC)c1OC` (stereo unspecified), the IC50 is > 54 µM (inactive) and the fold change stood at 0.997.

The record behind these values is PubChem BioAssay AID1419 (Emory University Molecular Libraries Screening Center, 2008).
